Experimental data from EP4273147A1, “SUBSTITUTED SPIROLACTAMS, SALTS THEREOF AND THEIR USE AS HERBICIDALLY ACTIVE SUBSTANCES” (Bayer Aktiengesellschaft, priority 2022, dated 2023).

Assays:
[1] = tested on: LOLRI; experiment: Herbicidal pre-emergence action (Table A3); assay type: in vivo, Lolium rigidum; conditions: application rate 320 g/ha; visual grading after ca. 3 weeks
Summary of the method: (§1)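 Paired sowings (monocot weed with dicot weed) in potted sandy loam, seeds soil-covered.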

[2] = tested on: MATIN; experiment: Herbicidal pre-emergence action (Table A4); assay type: in vivo, Matricaria inodora; conditions: visual grading after ca. 3 weeks
Summary of the method: as §1

[3] = tested on: SETVI; experiment: Herbicidal pre-emergence action (Table A5); assay type: in vivo, Setaria viridis; conditions: visual grading after ca. 3 weeks
Summary of the method: as §1

[4] = tested on: STEME; experiment: Herbicidal pre-emergence action (Table A6); assay type: in vivo, Stellaria media; conditions: visual grading after ca. 3 weeks
Summary of the method: as §1

[5] = tested on: POAAN; experiment: Herbicidal pre-emergence action (Table A7); assay type: in vivo, Poa annua; conditions: application rate 320 g/ha; visual grading after ca. 3 weeks
Summary of the method: as §1

[6] = tested on: ALOMY; experiment: Herbicidal pre-emergence action (Table A9); assay type: in vivo, Alopecurus myosuroides; conditions: visual grading after ca. 3 weeks
Summary of the method: as §1

[7] = tested on: KCHSC; experiment: Herbicidal pre-emergence action (Table A10); assay type: in vivo, Kochia scoparia; conditions: application rate 1280 g/ha; visual grading after ca. 3 weeks
Summary of the method: as §1

[8] = tested on: VERPE; experiment: Herbicidal pre-emergence action (Table A11); assay type: in vivo, Veronica persica; conditions: visual grading after ca. 3 weeks
Summary of the method: as §1

[9] = tested on: DIGSA; experiment: Herbicidal pre-emergence action (Table A12); assay type: in vivo, Digitaria sanguinalis; conditions: application rate 320 g/ha; visual grading after ca. 3 weeks
Summary of the method: as §1

[10] = tested on: ECHCG; experiment: Herbicidal post-emergence action (Table B3); assay type: in vivo, Echinochloa crus-galli; conditions: rated visually after about 3 weeks
Summary of the method: (§2)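 Plants grown from seed in a greenhouse are treated at the one-leaf stage, two to three weeks after sowing. They then stay under optimum growth conditions for about three weeks before herbicidal activity is scored visually on a 0–100% scale against untreated controls.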

[11] = tested on: POAAN; experiment: Herbicidal post-emergence action (Table B7); assay type: in vivo, Poa annua
Summary of the method: as §2

[12] = tested on: ABUTH; experiment: Herbicidal pre-emergence action, section C (Table C1); assay type: in vivo, Abutilon theophrasti; conditions: visual grading after ca. 3 weeks
[13] = tested on: ALOMY; experiment: Herbicidal pre-emergence action, section C (Table C2); assay type: in vivo, Alopecurus myosuroides; conditions: visual grading after ca. 3 weeks
[14] = tested on: AVEFA; experiment: Herbicidal pre-emergence action, section C (Table C4); assay type: in vivo, Avena fatua; conditions: application rate 320 g/ha; visual grading after ca. 3 weeks
Text: Seeds of mono- and dicotyledonous weed plants and crop plants were sown, in plastic or organic planting pots, in sandy loam and covered with soil. The compounds according to the invention, formulated in the form of wettable powders (WP) or as emulsifiable concentrates (EC), were applied to the surface of the covering soil as aqueous suspension or emulsion, with the addition of 0.5% of an additive, at an application rate of 600 1 of water/ha (converted). Following treatment, the pots were placed in a greenhouse and kept under optimum growth conditions for the test plants.

[15] = tested on: DIGSA; experiment: Herbicidal pre-emergence action, section C (Table C5); assay type: in vivo, Digitaria sanguinalis; conditions: visual grading after ca. 3 weeks
[16] = tested on: ECHCG; experiment: Herbicidal pre-emergence action, section C (Table C6); assay type: in vivo, Echinochloa crus-galli; conditions: application rate 80 g/ha; visual grading after ca. 3 weeks
[17] = tested on: LOLRI; experiment: Herbicidal pre-emergence action, section C (Table C7); assay type: in vivo, Lolium rigidum; conditions: application rate 320 g/ha; visual grading after ca. 3 weeks
[18] = tested on: SETVI; experiment: Herbicidal pre-emergence action, section C (Table C10); assay type: in vivo, Setaria viridis; conditions: visual grading after ca. 3 weeks
[19] = tested on: VERPE; experiment: Herbicidal pre-emergence action, section C (Table C11); assay type: in vivo, Veronica persica; conditions: application rate 320 g/ha; visual grading after ca. 3 weeks
[20] = tested on: VIOTR; experiment: Herbicidal pre-emergence action, section C (Table C12); assay type: in vivo, Viola tricolor; conditions: application rate 80 g/ha; visual grading after ca. 3 weeks
[21] = tested on: ZEAMX; experiment: Pre-emergence effects on crop plants (Table D1); assay type: in vivo, Zea mays; conditions: crop plant; application rate 80 g/ha; visual grading after ca. 3 weeks
[22] = tested on: TRZAS; experiment: Pre-emergence effects on crop plants (Table D2); assay type: in vivo, Triticum aestivum; conditions: crop plant; application rate 80 g/ha; visual grading after ca. 3 weeks
Text: (§4) Seeds of mono- and dicotyledonous weed plants and crop plants were sown, in plastic or organic planting pots, in sandy loam and covered with soil. The compounds according to the invention, formulated in the form of wettable powders (WP) or as emulsifiable concentrates (EC), were applied to the surface of the covering soil as aqueous suspension or emulsion, with the addition of 0.5% of an additive, at an application rate of 600 1 of water/ha (converted).
(§5) Following treatment, the pots were placed in a greenhouse and kept under optimum growth conditions for the test plants.

[23] = tested on: GLXMA; experiment: Pre-emergence effects on crop plants (Table D4); assay type: in vivo, Glycine max; conditions: crop plant; application rate 80 g/ha; visual grading after ca. 3 weeks
Text: as §4, §5

[24] = tested on: ABUTH; experiment: Herbicidal post-emergence action, section E (Table E1); assay type: in vivo, Abutilon theophrasti; conditions: application rate 320 g/ha; assessed visually after ca. 3 weeks
Text: (§3) 2 to 3 weeks after sowing, the test plants were sprayed in the single-leaf stage.

[25] = tested on: VERPE; experiment: Herbicidal post-emergence action, section E (Table E9); assay type: in vivo, Veronica persica; conditions: application rate 320 g/ha; assessed visually after ca. 3 weeks
Text: as §3

[26] = tested on: VIOTR; experiment: Herbicidal post-emergence action, section E (Table E10); assay type: in vivo, Viola tricolor; conditions: application rate 320 g/ha; assessed visually after ca. 3 weeks
Text: as §3

[27] = tested on: ZEAMX; experiment: Post-emergence effects on crop plants (Table F1); assay type: in vivo, Zea mays; conditions: application rate 80 g/ha, crop plant ZEAMX
Text: as §3

[28] = tested on: TRZAS; experiment: Post-emergence effects on crop plants (Table F2); assay type: in vivo, Triticum aestivum; conditions: crop plant TRZAS
Text: as §3

[29] = tested on: ORYZA; experiment: Post-emergence effects on crop plants (Table F3); assay type: in vivo, Oryza sativa; conditions: crop plant ORYZA
Text: as §3

[30] = tested on: ORYZA; experiment: Pre-emergence effects on crop plants (Table D3); conditions: crop plant; application rate 320 g/ha; visual grading after ca. 3 weeks
[31] = tested on: ABUTH; experiment: Herbicidal pre-emergence action (Table A1); assay type: in vivo, Abutilon theophrasti; conditions: application rate 320 g/ha; visual grading after ca. 3 weeks vs untreated controls (100% = plants have died off, 0% = as control plants)
Summary of the method: as §1

[32] = tested on: ECHCG; experiment: Herbicidal pre-emergence action (Table A2); assay type: in vivo, Echinochloa crus-galli; conditions: application rate 320 g/ha; visual grading after ca. 3 weeks
Summary of the method: as §1

[33] = tested on: AMARE; experiment: Herbicidal pre-emergence action (Table A8); assay type: in vivo, Amaranthus retroflexus; conditions: application rate 1280 g/ha; visual grading after ca. 3 weeks vs untreated controls (100% = plants have died off, 0% = as control plants)
Summary of the method: as §1

[34] = tested on: ABUTH; experiment: Herbicidal post-emergence action (Table B1); assay type: in vivo, Abutilon theophrasti; conditions: application rate 320 g/ha; treated at one-leaf stage; rated visually after about 3 weeks vs untreated controls (100% = plants have died, 0% = like control plants)
Summary of the method: as §2

[35] = tested on: ALOMY; experiment: Herbicidal post-emergence action (Table B2); assay type: in vivo, Alopecurus myosuroides; conditions: application rate 320 g/ha; rated visually after about 3 weeks
Summary of the method: as §2

[36] = tested on: LOLRI; experiment: Herbicidal post-emergence action (Table B5); assay type: in vivo, Lolium rigidum; conditions: application rate 320 g/ha; rated visually after about 3 weeks
Summary of the method: as §2

[37] = tested on: MATIN; experiment: Herbicidal post-emergence action (Table B6); assay type: in vivo, Matricaria inodora; conditions: application rate 320 g/ha; rated visually after about 3 weeks
Summary of the method: as §2

[38] = tested on: SETVI; experiment: Herbicidal post-emergence action (Table B8); assay type: in vivo, Setaria viridis; conditions: application rate 320 g/ha
Summary of the method: as §2

[39] = tested on: VERPE; experiment: Herbicidal post-emergence action (Table B10); assay type: in vivo, Veronica persica; conditions: application rate 320 g/ha
Summary of the method: as §2

[40] = tested on: DIGSA; experiment: Herbicidal post-emergence action (Table B12); assay type: in vivo, Digitaria sanguinalis; conditions: application rate 320 g/ha
Summary of the method: as §2

[41] = tested on: MATIN; experiment: Herbicidal pre-emergence action, section C (Table C8); assay type: in vivo, Matricaria inodora; conditions: application rate 320 g/ha; visual grading after ca. 3 weeks
[42] = tested on: POLCO; experiment: Herbicidal pre-emergence action, section C (Table C9); assay type: in vivo, Polygonum convolvulus; conditions: application rate 320 g/ha; visual grading after ca. 3 weeks
[43] = tested on: ALOMY; experiment: Herbicidal post-emergence action, section E (Table E2); assay type: in vivo, Alopecurus myosuroides; conditions: application rate 320 g/ha; assessed visually after ca. 3 weeks
Text: as §3

[44] = tested on: DIGSA; experiment: Herbicidal post-emergence action, section E (Table E4); assay type: in vivo, Digitaria sanguinalis; conditions: application rate 320 g/ha; assessed visually after ca. 3 weeks
Text: as §3

[45] = tested on: ECHCG; experiment: Herbicidal post-emergence action, section E (Table E5); assay type: in vivo, Echinochloa crus-galli; conditions: application rate 80 g/ha; assessed visually after ca. 3 weeks
Text: as §3

[46] = tested on: LOLRI; experiment: Herbicidal post-emergence action, section E (Table E6); assay type: in vivo, Lolium rigidum; conditions: application rate 320 g/ha; assessed visually after ca. 3 weeks
Text: as §3

[47] = tested on: SETVI; experiment: Herbicidal post-emergence action, section E (Table E8); assay type: in vivo, Setaria viridis; conditions: application rate 320 g/ha; assessed visually after ca. 3 weeks
Text: as §3

## O=C1N(Cc2ccccc2Cl)CCCC12CCN(Cc1cccc(F)c1F)C2=O (racemic) [I-035]
[1]
  pre-emergence activity against LOLRI: 100%
[2]; application rate 1280 g/ha
  pre-emergence activity against MATIN: 90%
[3]; application rate 1280 g/ha
  pre-emergence activity against SETVI: 100%
[4]; application rate 1280 g/ha
  pre-emergence activity against STEME: 90%
[5]
  pre-emergence activity against POAAN: 100%
[6]; application rate 1280 g/ha
  pre-emergence activity against ALOMY: 90%
[7]
  pre-emergence activity against KCHSC: 90%
[8]; application rate 1280 g/ha
  pre-emergence activity against VERPE: 90%
[9]
  pre-emergence activity against DIGSA: 100%
[10]; application rate 1280 g/ha
  post-emergence activity against ECHCG: 90%
[11]; application rate 1280 g/ha
  post-emergence activity against POAAN: 90%
[12]; application rate 320 g/ha
  pre-emergence activity against ABUTH: 80%
[13]; application rate 320 g/ha
  pre-emergence activity against ALOMY: 80%
[14]
  pre-emergence activity against AVEFA: 100%
[15]; application rate 320 g/ha
  pre-emergence activity against DIGSA: 100%
[16]
  pre-emergence activity against ECHCG: 100%
[17]
  pre-emergence activity against LOLRI: 90%
[18]; application rate 320 g/ha
  pre-emergence activity against SETVI: 100%
[19]
  pre-emergence activity against VERPE: 90%
[20]
  pre-emergence activity against VIOTR: 90%
[21]
  pre-emergence activity against ZEAMX: 0%
[22]
  pre-emergence activity against TRZAS: 0%
[23]
  pre-emergence activity against GLXMA: 0%
[24]
  post-emergence activity against ABUTH: 90%
[25]
  post-emergence activity against VERPE: 80%
[26]
  post-emergence activity against VIOTR: 80%
[27]
  post-emergence activity against ZEAMX: 0%
[28]; application rate 320 g/ha
  post-emergence activity against TRZAS: 0%
[29]; application rate 320 g/ha
  post-emergence activity against ORYZA: 0%
[30]
  pre-emergence activity against ORYZA: 0%

## O=C1N(Cc2ccccc2F)CCCC12CCCN(Cc1ccccc1F)C2=O (single isomer, unassigned) [I-001]
[31]
  pre-emergence activity against ABUTH: 90%
[32]
  pre-emergence activity against ECHCG: 100%
[1]
  pre-emergence activity against LOLRI: 100%
[2]; application rate 320 g/ha
  pre-emergence activity against MATIN: 90%
[3]; application rate 320 g/ha
  pre-emergence activity against SETVI: 100%
[4]; application rate 320 g/ha
  pre-emergence activity against STEME: 90%
[5]
  pre-emergence activity against POAAN: 100%
[33]
  pre-emergence activity against AMARE: 90%
[6]; application rate 320 g/ha
  pre-emergence activity against ALOMY: 90%
[7]
  pre-emergence activity against KCHSC: 90%
[8]; application rate 320 g/ha
  pre-emergence activity against VERPE: 90%
[9]
  pre-emergence activity against DIGSA: 100%
[34]
  post-emergence activity against ABUTH: 90%
[35]
  post-emergence activity against ALOMY: 90%
[10]; application rate 320 g/ha
  post-emergence activity against ECHCG: 100%
[36]
  post-emergence activity against LOLRI: 90%
[37]
  post-emergence activity against MATIN: 90%
[11]; application rate 320 g/ha
  post-emergence activity against POAAN: 90%
[38]
  post-emergence activity against SETVI: 90%
[39]
  post-emergence activity against VERPE: 90%
[40]
  post-emergence activity against DIGSA: 90%
[12]; application rate 80 g/ha
  pre-emergence activity against ABUTH: 80%
[13]; application rate 80 g/ha
  pre-emergence activity against ALOMY: 100%
[15]; application rate 80 g/ha
  pre-emergence activity against DIGSA: 100%
[16]
  pre-emergence activity against ECHCG: 100%
[17]
  pre-emergence activity against LOLRI: 100%
[41]
  pre-emergence activity against MATIN: 100%
[42]
  pre-emergence activity against POLCO: 80%
[18]; application rate 80 g/ha
  pre-emergence activity against SETVI: 100%
[19]
  pre-emergence activity against VERPE: 90%
[20]
  pre-emergence activity against VIOTR: 90%
[23]
  pre-emergence activity against GLXMA: 0%
[24]
  post-emergence activity against ABUTH: 80%
[43]
  post-emergence activity against ALOMY: 90%
[44]
  post-emergence activity against DIGSA: 80%
[45]
  post-emergence activity against ECHCG: 90%
[46]
  post-emergence activity against LOLRI: 90%
[47]
  post-emergence activity against SETVI: 100%
[25]
  post-emergence activity against VERPE: 90%
[26]
  post-emergence activity against VIOTR: 80%
[27]
  post-emergence activity against ZEAMX: 0%
[28]; application rate 80 g/ha
  post-emergence activity against TRZAS: 0%
[29]; application rate 80 g/ha
  post-emergence activity against ORYZA: 0%
